Reference: patent US11464780B2, “Pyrazolopyrimidine derivative and use thereof” (Simcere Pharmaceutical Co. Ltd., priority 2018, dated 2022)
Like-named read-outs stand apart in the source and are kept apart here.

Tests used:
[1] = molecular target: T1, BaF3 ETV6-NTRK3-G623R stably transfected cell line (Homo sapiens, UniProt Q16288, G623R, cells depend on it); experiment: Cell proliferation inhibition (CellTiter-Glo); format: cell-based; settings: 72 hours, read-out: The half maximal inhibitory concentration IC50 against cells, BaF3 ETV6-NTRK3-G623R
T1 construct: fused on or other part: P41212 (Transcription factor ETV6)
T1 sequence (Q16288 whole entry G623R, the tested form may be a part): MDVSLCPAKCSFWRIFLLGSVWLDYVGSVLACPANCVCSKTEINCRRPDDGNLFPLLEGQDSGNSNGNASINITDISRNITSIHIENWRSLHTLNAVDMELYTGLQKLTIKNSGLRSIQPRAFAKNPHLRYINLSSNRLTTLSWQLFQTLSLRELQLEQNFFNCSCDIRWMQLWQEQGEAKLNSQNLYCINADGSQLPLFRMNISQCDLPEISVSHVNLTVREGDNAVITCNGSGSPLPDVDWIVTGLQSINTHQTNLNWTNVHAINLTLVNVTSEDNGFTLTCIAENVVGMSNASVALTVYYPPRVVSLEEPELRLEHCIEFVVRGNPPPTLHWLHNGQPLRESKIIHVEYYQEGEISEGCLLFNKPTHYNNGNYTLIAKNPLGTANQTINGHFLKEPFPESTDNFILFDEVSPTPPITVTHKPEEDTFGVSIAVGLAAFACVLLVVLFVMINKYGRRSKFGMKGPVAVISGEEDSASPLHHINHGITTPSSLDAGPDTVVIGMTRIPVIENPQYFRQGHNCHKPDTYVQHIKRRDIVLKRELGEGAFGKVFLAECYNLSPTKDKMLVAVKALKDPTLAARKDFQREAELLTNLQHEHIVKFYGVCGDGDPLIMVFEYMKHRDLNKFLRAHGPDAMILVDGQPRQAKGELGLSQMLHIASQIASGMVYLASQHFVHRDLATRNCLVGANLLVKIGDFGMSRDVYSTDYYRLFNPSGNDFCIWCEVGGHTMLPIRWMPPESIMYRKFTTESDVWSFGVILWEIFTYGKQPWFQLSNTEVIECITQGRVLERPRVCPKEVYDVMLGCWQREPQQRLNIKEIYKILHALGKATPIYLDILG

[2] = In vivo pharmacokinetic test in mice; design: species or system male CD-1 mice; settings: for Vd / AUC(0-t) / half-life / bioavailability / Cmax / Tmax: male, CD-1, mouse, plasma; for Vd: read-out: Apparent volume of distribution Vd; for AUC(0-t): read-out: Area under the curve AUC0-last; for half-life: read-out: Half life T1/2 (converted); for bioavailability: PO dose of 10 mL/kg vs IV 3 mg/kg, read-out: Bioavailability F %; for Cmax: read-out: Peak concentration Cmax; for Tmax: read-out: Time of peak concentration Tmax
Method: Experimental object: male CD-1 mice aged 7-9 weeks were used as the experimental animals, the LC/MS/MS method was used to determine the drug concentrations in plasma at different time points after single intravenous (IV) and intragastric (PO) administration of the compounds, in vivo pharmacokinetic behaviors of the compounds of the present disclosure in mice were studied, and pharmacokinetic characteristics thereof were evaluated. Drug preparation: The compounds were prepared into clear solutions with 5% DMSO+10% solutol+85% water as solvent for administration in IV (intravenous) group and PO (intragastric). The dose of the compounds: IV dose of 3 mg/kg, and PO dose of […].

[3] = molecular target: T2, Ba/F3 LMNA-NTRK1-G595R stably transfected cell line (Homo sapiens, UniProt P04629, G595R, cells depend on it); experiment: Cell proliferation inhibition (CellTiter-Glo); format: cell-based; settings: 72 hours, read-out: The half maximal inhibitory concentration IC50 against cells, Ba/F3 LMNA-NTRK1-G595R
T2 construct: fused on or other part: P02545 (Prelamin-A/C)
T2 sequence (P04629 whole entry G595R, the tested form may be a part): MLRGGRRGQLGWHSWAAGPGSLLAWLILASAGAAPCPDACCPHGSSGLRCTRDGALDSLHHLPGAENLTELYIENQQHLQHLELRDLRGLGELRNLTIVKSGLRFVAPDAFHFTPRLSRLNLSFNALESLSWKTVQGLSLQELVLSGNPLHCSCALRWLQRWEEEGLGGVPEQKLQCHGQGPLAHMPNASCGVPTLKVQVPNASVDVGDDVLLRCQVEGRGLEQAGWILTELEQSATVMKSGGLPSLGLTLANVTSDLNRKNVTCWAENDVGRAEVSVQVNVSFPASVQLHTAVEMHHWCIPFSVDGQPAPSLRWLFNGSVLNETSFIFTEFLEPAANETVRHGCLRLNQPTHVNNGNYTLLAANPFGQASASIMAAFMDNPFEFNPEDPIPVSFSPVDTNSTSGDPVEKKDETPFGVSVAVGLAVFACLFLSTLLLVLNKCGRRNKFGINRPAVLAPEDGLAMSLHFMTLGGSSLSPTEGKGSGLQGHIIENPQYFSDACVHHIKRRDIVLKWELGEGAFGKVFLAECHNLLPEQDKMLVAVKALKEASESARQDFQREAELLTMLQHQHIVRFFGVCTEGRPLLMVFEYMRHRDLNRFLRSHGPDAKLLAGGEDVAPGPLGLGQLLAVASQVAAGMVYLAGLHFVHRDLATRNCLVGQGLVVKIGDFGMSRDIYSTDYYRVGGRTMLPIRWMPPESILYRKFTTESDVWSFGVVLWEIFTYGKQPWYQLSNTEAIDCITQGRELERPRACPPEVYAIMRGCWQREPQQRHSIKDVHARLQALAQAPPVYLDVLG

[4] = molecular target: T3, TrkA-G595R (Homo sapiens, UniProt P04629, G595R); experiment: Kinase inhibitory activity (33P-ATP filter binding, Reaction Biology Corp.); format: biochemical; settings: read-out: The half maximal inhibitory concentration IC50 on the kinases, TrkA-G595R
T3 construct: purchased Reaction Biology Corp. (contract assay)
T3 sequence (P04629 33-796 G595R): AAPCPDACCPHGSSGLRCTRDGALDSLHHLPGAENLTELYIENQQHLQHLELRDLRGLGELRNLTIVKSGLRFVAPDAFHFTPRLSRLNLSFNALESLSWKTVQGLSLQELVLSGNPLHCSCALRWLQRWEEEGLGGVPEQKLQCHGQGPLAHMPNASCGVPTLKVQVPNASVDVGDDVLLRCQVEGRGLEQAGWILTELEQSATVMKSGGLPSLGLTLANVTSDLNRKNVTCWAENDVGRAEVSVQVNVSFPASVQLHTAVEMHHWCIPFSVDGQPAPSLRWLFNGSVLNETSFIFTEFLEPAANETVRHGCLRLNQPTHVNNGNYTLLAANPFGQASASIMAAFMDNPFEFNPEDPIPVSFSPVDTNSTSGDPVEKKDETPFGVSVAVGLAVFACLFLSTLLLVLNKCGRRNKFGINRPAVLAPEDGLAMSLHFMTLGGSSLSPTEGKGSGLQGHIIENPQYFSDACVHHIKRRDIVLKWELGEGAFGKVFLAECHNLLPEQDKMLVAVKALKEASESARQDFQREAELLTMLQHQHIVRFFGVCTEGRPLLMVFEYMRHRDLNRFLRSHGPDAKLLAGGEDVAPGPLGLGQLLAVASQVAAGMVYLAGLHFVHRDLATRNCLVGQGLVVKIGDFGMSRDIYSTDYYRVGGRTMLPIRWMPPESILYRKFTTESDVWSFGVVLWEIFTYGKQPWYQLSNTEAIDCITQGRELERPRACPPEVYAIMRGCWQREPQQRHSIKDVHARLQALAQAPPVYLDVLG
Method: (§1) The mixture was incubated at room temperature for 20 minutes. To the reaction mixture was added a certain concentration of ^33P-ATP to initiate the reaction, and then the mixture was incubated at room temperature for 120 minutes. The radioactivities of the reactants were determined by the method of filter binding. The final kinase activity was expressed as the ratio of the remaining kinase activity in the test sample to the kinase activity in the DMSO control group. The dose-effect curve was fitted by GraphPad software and the IC50 was calculated.

[5] = molecular target: T4, TrkA (Homo sapiens, UniProt P04629); experiment: as above; format: biochemical; settings: read-out: The half maximal inhibitory concentration IC50 on the kinases, TrkA
T4 construct: purchased Reaction Biology Corp. (contract assay)
T4 sequence (P04629 33-796): as the sequence (P04629 33-796 G595R) above, with R563G counted along it
Method: as §1

[6] = molecular target: T5, Ros-G2032R (Homo sapiens, UniProt P08922, G2032R); experiment: as above; format: biochemical; settings: read-out: The half maximal inhibitory concentration IC50 on the kinases, Ros-G2032R
T5 construct: purchased Reaction Biology Corp. (contract assay)
Method: as §1

[7] = molecular target: T6, TrkA-G667C (Homo sapiens, UniProt P04629, G667C); experiment: as above; format: biochemical; settings: read-out: The half maximal inhibitory concentration IC50 on the kinases, TrkA-G667C
T6 construct: purchased Reaction Biology Corp. (contract assay)
T6 sequence (P04629 33-796 G667C): as the sequence (P04629 33-796 G595R) above, with R563G, G635C counted along it
Method: as §1

[8] = molecular target: T7, TrkC (Homo sapiens, UniProt Q16288); experiment: as above; format: biochemical; settings: read-out: The half maximal inhibitory concentration IC50 on the kinases, TrkC
T7 construct: purchased Reaction Biology Corp. (contract assay)
Method: as §1

[9] = molecular target: T8, Ros1 (Homo sapiens, UniProt P08922); experiment: as above; format: biochemical; settings: read-out: The half maximal inhibitory concentration IC50 on the kinases, Ros1
T8 construct: purchased Reaction Biology Corp. (contract assay)
Method: as §1

[10] = molecular target: T9, Ba/F3 LMNA-NTRK1-WT stably transfected cell line (Homo sapiens, UniProt P04629); experiment: Cell proliferation inhibition (CellTiter-Glo); format: cell-based; settings: 72 hours, read-out: The half maximal inhibitory concentration IC50 against cells, Ba/F3 LMNA-NTRK1-WT
T9 construct: fused on or other part: P02545 (Prelamin-A/C)
T9 sequence (P04629 whole entry, stated change not applied, the tested form may be a part): as the sequence (P04629 whole entry G595R, the tested form may be a part) above, with R595G counted along it
Method: Adenosine Tri-Phosphate (ATP) is an energy carrier shared by various life activities in nature, and is the smallest unit of energy storage and transfer. The CellTiter-Glo™ cell viability detection kit uses luciferase as the detection substance, and luciferase requires the participation of ATP during the process of luminescence. CellTiter-Glo™ reagent is added to cell culture medium, and the luminescent intensity is measured. The luminescent signal is directly proportional to the amount of ATP in the system, and ATP is positively related to the number of living cells. Therefore, by using the CellTiter-Glo kit to detect ATP content, cell proliferation can be detected. In this assay, the cell line is Ba/F3 LMNA-NTRK1-WT stably transfected cell line, with 5000 cells/well.
IC50 Determination Process:
1. Cell Culture and Inoculation
a) the cells in the logarithmic growth phase were harvested, and counted with a platelet counter. Trypan blue exclusion method was used to detect cell viability to ensure the cell viability was no less than 90%.
b) the cell concentration was adjusted; 90 μL of cell suspension was added respectively into a 96-well plate.
c) the cells in the 96-well plates was cultured under conditions of 37° C., 5% CO2 and 95% humidity overnight.
2. Drug Dilution and Administration
a) 10-fold drug solutions were prepared, the highest concentration was 10 μM, 9 concentrations, 3-fold diluted (refer to Appendix I). 10 μL of each drug solution was added to each well of the 96-well plate seeded with the cells in triplicate.
b) the cells in the 96-well plate added with the drug were cultured under conditions of 37° C., 5% CO2 and 95% humidity for 72 hours, and then CTG (cell proliferation) was performed.
a) CellTiter-Glo™ reagent was thawed, and the cell plate was equilibrated at room temperature for 30 minutes.
b) CellTiter-Glo™ reagent of a same volume was added to each well;
c) the cell plate was shaken on an orbital shaker for 5 minutes to lyse the cells.
d) the cell plate was placed at room temperature for 20 minutes to stabilize the luminescent signal.
e) the luminescent intensity was read.
GraphPad Prism 5.0 software was used to analyze the data, nonlinear S-curve regression was used to fit the data to obtain dose-effect curve, and IC50 value was calculated therefrom.

[11] = molecular target: T10, Ba/F3 SLC34A2-ROS1-G2032R stably transfected cell line (Homo sapiens, UniProt P08922, G2032R, cells depend on it); experiment: Cell proliferation inhibition (CellTiter-Glo); format: cell-based; settings: 72 hours, read-out: The half maximal inhibitory concentration IC50 against cells, Ba/F3 SLC34A2-ROS1-G2032R
T10 construct: fused on or other part: O95436 (Sodium-dependent phosphate transport protein 2B)
T10 sequence (P08922 whole entry G2032R, the tested form may be a part): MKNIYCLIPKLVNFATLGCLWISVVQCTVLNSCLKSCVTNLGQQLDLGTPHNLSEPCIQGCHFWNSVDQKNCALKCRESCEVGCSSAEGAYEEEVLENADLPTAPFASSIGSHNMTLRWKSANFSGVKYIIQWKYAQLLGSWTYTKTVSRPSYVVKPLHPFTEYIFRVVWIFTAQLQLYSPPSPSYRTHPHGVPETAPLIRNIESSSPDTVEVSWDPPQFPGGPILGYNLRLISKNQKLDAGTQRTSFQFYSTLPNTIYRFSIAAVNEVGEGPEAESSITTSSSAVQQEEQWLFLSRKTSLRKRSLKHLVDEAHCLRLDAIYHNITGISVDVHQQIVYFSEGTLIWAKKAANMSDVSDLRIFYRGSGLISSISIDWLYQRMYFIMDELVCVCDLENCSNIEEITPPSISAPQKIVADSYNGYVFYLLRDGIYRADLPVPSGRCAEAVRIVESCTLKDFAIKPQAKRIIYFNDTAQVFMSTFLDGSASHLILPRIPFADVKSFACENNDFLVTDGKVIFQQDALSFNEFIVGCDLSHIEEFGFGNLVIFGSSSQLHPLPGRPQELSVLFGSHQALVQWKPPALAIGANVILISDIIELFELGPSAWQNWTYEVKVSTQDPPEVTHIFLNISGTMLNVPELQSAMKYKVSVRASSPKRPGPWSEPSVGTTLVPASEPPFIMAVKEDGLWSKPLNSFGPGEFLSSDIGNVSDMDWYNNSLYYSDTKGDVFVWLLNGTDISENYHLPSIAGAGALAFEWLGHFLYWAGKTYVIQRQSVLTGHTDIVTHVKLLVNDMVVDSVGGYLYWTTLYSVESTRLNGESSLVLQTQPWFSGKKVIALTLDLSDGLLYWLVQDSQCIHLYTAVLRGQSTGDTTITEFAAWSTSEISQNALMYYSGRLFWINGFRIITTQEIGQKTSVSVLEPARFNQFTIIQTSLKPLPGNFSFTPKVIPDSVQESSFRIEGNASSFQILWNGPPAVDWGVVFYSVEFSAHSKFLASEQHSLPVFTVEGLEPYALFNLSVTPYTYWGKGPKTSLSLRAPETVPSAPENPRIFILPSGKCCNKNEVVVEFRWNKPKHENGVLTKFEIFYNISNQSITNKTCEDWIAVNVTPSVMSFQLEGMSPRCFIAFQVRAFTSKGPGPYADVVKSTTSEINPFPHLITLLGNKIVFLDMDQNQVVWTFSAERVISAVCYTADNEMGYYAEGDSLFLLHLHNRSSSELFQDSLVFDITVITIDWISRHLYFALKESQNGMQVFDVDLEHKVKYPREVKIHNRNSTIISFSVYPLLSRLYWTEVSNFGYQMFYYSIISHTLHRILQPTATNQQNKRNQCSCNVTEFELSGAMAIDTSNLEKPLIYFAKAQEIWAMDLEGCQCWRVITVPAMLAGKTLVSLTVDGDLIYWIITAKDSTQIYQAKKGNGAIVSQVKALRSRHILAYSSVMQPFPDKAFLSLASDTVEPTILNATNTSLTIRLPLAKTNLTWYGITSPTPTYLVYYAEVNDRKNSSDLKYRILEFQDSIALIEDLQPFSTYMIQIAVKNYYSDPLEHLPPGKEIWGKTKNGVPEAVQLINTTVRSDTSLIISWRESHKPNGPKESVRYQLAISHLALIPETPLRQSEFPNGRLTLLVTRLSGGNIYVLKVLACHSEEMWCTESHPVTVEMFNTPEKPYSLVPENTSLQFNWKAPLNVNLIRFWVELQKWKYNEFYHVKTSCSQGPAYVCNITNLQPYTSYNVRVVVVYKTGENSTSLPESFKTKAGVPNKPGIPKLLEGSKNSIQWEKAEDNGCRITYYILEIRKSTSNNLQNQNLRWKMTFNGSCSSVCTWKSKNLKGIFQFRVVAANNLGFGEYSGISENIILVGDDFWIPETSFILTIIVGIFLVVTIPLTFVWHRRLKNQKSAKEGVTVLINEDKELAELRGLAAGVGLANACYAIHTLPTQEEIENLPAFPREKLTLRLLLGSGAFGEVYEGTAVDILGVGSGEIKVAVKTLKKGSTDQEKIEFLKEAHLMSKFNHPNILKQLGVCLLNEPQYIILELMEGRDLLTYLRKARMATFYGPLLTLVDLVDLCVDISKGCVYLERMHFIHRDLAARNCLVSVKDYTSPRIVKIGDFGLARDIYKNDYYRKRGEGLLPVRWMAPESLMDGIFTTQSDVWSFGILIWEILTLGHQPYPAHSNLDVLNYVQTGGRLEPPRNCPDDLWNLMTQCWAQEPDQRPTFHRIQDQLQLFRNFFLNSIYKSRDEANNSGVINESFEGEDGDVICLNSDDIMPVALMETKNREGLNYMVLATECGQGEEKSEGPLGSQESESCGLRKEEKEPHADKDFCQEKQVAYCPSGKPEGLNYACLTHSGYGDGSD

[12] = molecular target: T11, ALK (Homo sapiens, UniProt Q9UM73); experiment: Kinase inhibitory activity (33P-ATP filter binding, Reaction Biology Corp.); format: biochemical; settings: read-out: The half maximal inhibitory concentration IC50 on the kinases, ALK
T11 construct: purchased Reaction Biology Corp. (contract assay)
Method: The inhibitory activities of the compounds on TrkA, TrkC, ALK, Ros1 and other kinases were determined by Reaction Biology Corp. To reaction buffer (20 mM Hepes (pH 7.5), 10 mM MgCl2, 1 mM EGTA, 0.02% Brij35, 0.02 mg/mL BSA, 0.1 mM Na3VO4, 2 mM DTT, 1% DMSO) were sequentially added a certain concentration of substrate, coenzyme factor, kinase and test compound (10 concentrations, 3-fold serial dilutions, DMSO at a final concentration of […]), and the mixture was mixed evenly. The mixture was incubated at room temperature for 20 minutes. To the reaction mixture was added a certain concentration of ^33P-ATP to initiate the reaction, and then the mixture was incubated at room temperature for 120 minutes. The radioactivities of the reactants were determined by the method of filter binding. The final kinase activity was expressed as the ratio of the remaining kinase activity in the test sample to the kinase activity in the DMSO control group. The dose-effect curve was fitted by GraphPad software and the IC50 was calculated.

[13] = molecular target: T12, Ba/F3 SLC34A2-ROS1-WT stably transfected cell line (Homo sapiens, UniProt P08922); experiment: Cell proliferation inhibition (CellTiter-Glo); format: cell-based; settings: 72 hours, read-out: The half maximal inhibitory concentration IC50 against cells, Ba/F3 SLC34A2-ROS1-WT
T12 construct: fused on or other part: O95436 (Sodium-dependent phosphate transport protein 2B)
T12 sequence (P08922 whole entry, stated change not applied, the tested form may be a part): as the sequence (P08922 whole entry G2032R, the tested form may be a part) above, with R2032G counted along it

[14] = molecular target: T13, Ba/F3 LMNA-NTRK1-F589L stably transfected cell line (Homo sapiens, UniProt P04629, F589L, cells depend on it); experiment: Cell proliferation inhibition (CellTiter-Glo); format: cell-based; settings: 72 hours, read-out: The half maximal inhibitory concentration IC50 against cells, Ba/F3 LMNA-NTRK1-F589L
T13 construct: fused on or other part: P02545 (Prelamin-A/C)
T13 sequence (P04629 whole entry F589L, the tested form may be a part): as the sequence (P04629 whole entry G595R, the tested form may be a part) above, with F589L, R595G counted along it

SMILES	GI50 [1] [nM]	Apparent clearance Cl ([2]; IV dose of 3 mg/kg) [mL/min/kg]	Vd ([2]; IV dose of 3 mg/kg) [L/kg]	AUC(0-t) ([2]; IV dose of 3 mg/kg) [µM·h]	half-life ([2]; IV dose of 3 mg/kg) [min]	bioavailability [2] [%]	AUC(0-t) ([2]; PO dose of 10 mL/kg) [µM·h]	Cmax ([2]; PO dose of 10 mL/kg) [µM]	Tmax ([2]; PO dose of 10 mL/kg) [min]	GI50 [3] [nM]	IC50 [4] [nM]	IC50 [5] [nM]	IC50 [6] [nM]	IC50 [7] [nM]	IC50 [8] [nM]	IC50 [9] [nM]	GI50 [10] [nM]	GI50 [11] [nM]	IC50 [12] [nM]	GI50 [13] [nM]	further results
C[C@H]1CNC(=O)c2cnn3ccc(nc23)N2OCC[C@@H]2c2cc(F)cnc2O1 [WX005B]	5.6	12.4	0.44	10.5	30	85	29.4	17.2	22.8	9.1	10.7	13.1	2.65	26.4	0.09	0.35	5.73	259	19.4	17.9	–
O=C1NC2(COC2)COc2ncc(F)cc2[C@H]2CCON2c2ccn3ncc1c3n2 [WX006A]	5.4	19.9	1.01	6.1	33.6	72	14.4	8.78	15	19.4	4.74	9.84	–	37.5	0.16	0.59	23.5	–	79.2	–	–
O=C1N[C@@H]2CCC[C@@H]2Oc2ncc(F)cc2[C@H]2CCON2c2ccn3ncc1c3n2 [WX007A]	69.1	5.50	0.47	22.1	52.8	76	54.9	22.6	22.8	12.4	5.18	2.8	0.73	2.85	0.05	0.13	5.8	165	11.6	10.1	–
O=C1N[C@@H]2COCC[C@@H]2Oc2ncc(F)cc2[C@H]2CCON2c2ccn3ncc1c3n2 [WX010B]	19.5	8.4	0.68	14	55.2	107	49.2	13	30	20.9	–	3.1	0.61	–	–	–	5.8	58.1	–	10.4	GI50 [14]: 4.26 nM
